# Results as given in PubChem BioAssay (NCI).
#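 Values below derive from 48-hour exposures of cells grown in 96-well plates, with endpoints linearly interpolated between the two concentrations bracketing the appropriate inhibition level. TGI: total growth inhibition.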
# Key:
# Assay in all cases: NCI-60 cell line screen, 48 h
# [1] = system: SN12C renal
# [2] = system: U251 CNS
# [3] = system: SW-620 colon
# [4] = system: HOP-18 NSCLC
# [5] = system: K-562 leukemia
# [6] = system: NCI-H23 lung
# [7] = system: UACC-62 melanoma
# [8] = system: SF-539 CNS
# [9] = system: HOP-62 NSCLC
# [10] = system: RPMI-8226 leukemia
# [11] = system: OVCAR-8 ovarian
# [12] = system: SNB-78 CNS
# [13] = system: SF-295 CNS
# [14] = system: HT29 colon
# [15] = system: HOP-92 NSCLC
# [16] = system: UACC-257 melanoma
# [17] = system: OVCAR-4 ovarian
# [18] = system: CCRF-CEM leukemia
# [19] = system: DMS 273 small cell lung
# [20] = system: KM20L2 colon
# [21] = system: MOLT-4 leukemia
# [22] = system: CAKI-1 renal
# [23] = system: KM12 colon
# [24] = system: DLD-1 colon
# [25] = system: DMS 114 small cell lung
# [26] = system: OVCAR-3 ovarian
# [27] = system: LXFL 529 NSCLC
# [28] = system: SR leukemia
# [29] = system: RXF 393 renal
# [30] = system: SK-MEL-28 melanoma
# [31] = system: HCC-2998 colon
# [32] = system: EKVX NSCLC
# [33] = system: SK-MEL-2 melanoma
# [34] = system: COLO 205 colon
# [35] = system: HL-60(TB) leukemia
# [36] = system: SNB-75 CNS
# [37] = system: 786-0 renal
# [38] = system: LOX IMVI melanoma
# [39] = system: NCI-H226 lung
# [40] = system: SF-268 CNS
# [41] = system: IGROV1 ovarian
# [42] = system: SK-MEL-5 melanoma
# [43] = system: HCT-116 colon
# [44] = system: M19-MEL melanoma
# [45] = system: NCI-H460 lung
# [46] = system: ACHN renal
# [47] = system: A498 renal
# [48] = system: A549 NSCLC
# [49] = system: HCT-15 colon
# [50] = system: MALME-3M melanoma
# [51] = system: TK-10 renal
# [52] = system: OVCAR-5 ovarian
# [53] = system: UO-31 renal
# [54] = system: M14 melanoma
# [55] = system: NCI-H522 lung
# [56] = system: SK-OV-3 ovarian
# [57] = system: XF 498 CNS
# [58] = system: SNB-19 CNS
compound,measurement,setting,value
COP(=O)(CC(=O)C1OC(C)(C)OC1C(O)COCc1ccccc1)OC (stereo not drawn),TGI,[1],> 100 µM
same,TGI,[2],> 100 µM
same,TGI,[3],> 100 µM
same,TGI,[4],> 100 µM
same,TGI,[5],> 100 µM
same,TGI,[6],> 100 µM
same,TGI,[7],> 100 µM
same,TGI,[8],> 100 µM
same,TGI,[9],> 100 µM
same,TGI,[10],> 100 µM
same,TGI,[11],> 100 µM
same,TGI,[12],> 100 µM
same,TGI,[13],> 100 µM
same,TGI,[14],> 100 µM
same,TGI,[15],> 100 µM
same,TGI,[16],> 100 µM
same,TGI,[17],> 100 µM
same,TGI,[18],> 100 µM
same,TGI,[19],> 100 µM
same,TGI,[20],> 100 µM
same,TGI,[21],> 100 µM
same,TGI,[22],> 100 µM
same,TGI,[23],> 100 µM
same,TGI,[24],> 100 µM
same,TGI,[25],> 100 µM
same,TGI,[26],> 100 µM
same,TGI,[27],> 100 µM
same,TGI,[28],> 100 µM
same,TGI,[29],> 100 µM
same,TGI,[30],> 100 µM
same,TGI,[31],> 100 µM
same,TGI,[32],> 100 µM
same,TGI,[33],> 100 µM
same,TGI,[34],> 100 µM
same,TGI,[35],> 100 µM
same,TGI,[36],> 100 µM
same,TGI,[37],> 100 µM
same,TGI,[38],> 100 µM
same,TGI,[39],> 100 µM
same,TGI,[40],> 100 µM
same,TGI,[41],> 100 µM
same,TGI,[42],> 100 µM
same,TGI,[43],> 100 µM
same,TGI,[44],> 100 µM
same,TGI,[45],> 100 µM
same,TGI,[46],> 100 µM
same,TGI,[47],> 100 µM
same,TGI,[48],> 100 µM
same,TGI,[49],> 100 µM
same,TGI,[50],> 100 µM
same,TGI,[51],> 100 µM
same,TGI,[52],> 100 µM
same,TGI,[53],> 100 µM
same,TGI,[54],> 100 µM
CN(C)c1ccc(C(C#N)NNC(=O)Cc2ccccc2)cc1 (stereo not drawn),TGI,[1],> 100 µM
same,TGI,[2],> 100 µM
same,TGI,[3],> 100 µM
same,TGI,[4],> 100 µM
same,TGI,[5],> 100 µM
same,TGI,[6],> 100 µM
same,TGI,[7],> 100 µM
same,TGI,[8],> 100 µM
same,TGI,[9],> 100 µM
same,TGI,[55],> 100 µM
same,TGI,[10],> 100 µM
same,TGI,[11],> 100 µM
same,TGI,[12],> 100 µM
same,TGI,[13],> 100 µM
same,TGI,[14],> 100 µM
same,TGI,[15],> 100 µM
same,TGI,[16],> 100 µM
same,TGI,[17],> 100 µM
same,TGI,[18],> 100 µM
same,TGI,[19],> 100 µM
same,TGI,[20],> 100 µM
same,TGI,[21],> 100 µM
same,TGI,[22],> 100 µM
same,TGI,[23],> 100 µM
same,TGI,[24],> 100 µM
same,TGI,[25],> 100 µM
same,TGI,[26],> 100 µM
same,TGI,[27],> 100 µM
same,TGI,[28],> 100 µM
same,TGI,[29],> 100 µM
same,TGI,[30],> 100 µM
same,TGI,[33],> 100 µM
same,TGI,[34],> 100 µM
same,TGI,[35],> 100 µM
same,TGI,[36],> 100 µM
same,TGI,[37],> 100 µM
same,TGI,[38],> 100 µM
same,TGI,[39],> 100 µM
same,TGI,[40],> 100 µM
same,TGI,[41],> 100 µM
same,TGI,[42],> 100 µM
same,TGI,[43],> 100 µM
same,TGI,[44],> 100 µM
same,TGI,[45],> 100 µM
same,TGI,[46],> 100 µM
same,TGI,[48],> 100 µM
same,TGI,[49],> 100 µM
same,TGI,[50],> 100 µM
same,TGI,[51],> 100 µM
same,TGI,[52],> 100 µM
same,TGI,[53],> 100 µM
same,TGI,[54],> 100 µM
same,TGI,[56],> 100 µM
CCOC(=O)C(Cc1c(C=O)[nH]c2ccccc12)(NC(=O)c1ccccc1)C(=O)OCC,TGI,[1],26.6 µM
same,TGI,[2],25.5 µM
same,TGI,[3],32.1 µM
same,TGI,[5],45.2 µM
same,TGI,[6],37.1 µM
same,TGI,[8],30.3 µM
same,TGI,[10],> 100 µM
same,TGI,[11],65.7 µM
same,TGI,[13],33 µM
same,TGI,[14],37.2 µM
same,TGI,[15],31.3 µM
same,TGI,[16],39.2 µM
same,TGI,[18],39 µM
same,TGI,[21],37.1 µM
same,TGI,[23],26.9 µM
same,TGI,[57],32.1 µM
same,TGI,[24],25 µM
same,TGI,[25],39 µM
same,TGI,[26],40.3 µM
same,TGI,[28],> 100 µM
same,TGI,[29],26 µM
same,TGI,[30],34.2 µM
same,TGI,[31],24.6 µM
same,TGI,[32],42.7 µM
same,TGI,[33],32.4 µM
same,TGI,[34],34.7 µM
same,TGI,[35],> 100 µM
same,TGI,[37],34.7 µM
same,TGI,[39],45.9 µM
same,TGI,[40],39.5 µM
same,TGI,[41],43.7 µM
same,TGI,[42],24.5 µM
same,TGI,[44],31.8 µM
same,TGI,[45],59.7 µM
same,TGI,[46],39.3 µM
same,TGI,[48],42.2 µM
same,TGI,[49],29.8 µM
same,TGI,[50],33.9 µM
same,TGI,[51],69.9 µM
same,TGI,[52],35.3 µM
same,TGI,[53],62.4 µM
same,TGI,[54],33.7 µM
same,TGI,[58],18.4 µM
same,TGI,[56],79.8 µM
COc1c(Cl)cc(Cl)cc1S(=O)O,TGI,[1],> 100 µM
same,TGI,[2],> 100 µM
same,TGI,[5],> 100 µM
same,TGI,[6],> 100 µM
same,TGI,[7],> 100 µM
same,TGI,[8],> 100 µM
same,TGI,[9],> 100 µM
same,TGI,[55],> 100 µM
same,TGI,[12],> 100 µM
same,TGI,[14],> 100 µM
same,TGI,[16],> 100 µM
same,TGI,[17],> 100 µM
same,TGI,[18],> 100 µM
same,TGI,[21],> 100 µM
same,TGI,[23],> 100 µM
same,TGI,[57],> 100 µM
same,TGI,[24],> 100 µM
same,TGI,[25],> 100 µM
same,TGI,[26],> 100 µM
same,TGI,[27],> 100 µM
same,TGI,[28],> 100 µM
same,TGI,[29],> 100 µM
same,TGI,[30],> 100 µM
same,TGI,[31],> 100 µM
same,TGI,[32],> 100 µM
same,TGI,[33],> 100 µM
same,TGI,[35],> 100 µM
same,TGI,[36],> 100 µM
same,TGI,[38],> 100 µM
same,TGI,[40],> 100 µM
same,TGI,[43],> 100 µM
same,TGI,[44],> 100 µM
same,TGI,[45],> 100 µM
same,TGI,[46],> 100 µM
same,TGI,[47],> 100 µM
same,TGI,[50],> 100 µM
same,TGI,[51],> 100 µM
same,TGI,[52],> 100 µM
same,TGI,[53],> 100 µM
same,TGI,[54],> 100 µM
same,TGI,[58],> 100 µM
same,TGI,[56],> 100 µM
Nc1cc(C(=O)NC2C3CC4CC(C3)CC2C4)[nH]c(=S)n1 (stereo not drawn),TGI,[1],> 100 µM
same,TGI,[2],> 100 µM
same,TGI,[3],> 100 µM
same,TGI,[5],> 100 µM
same,TGI,[6],> 100 µM
same,TGI,[8],> 100 µM
same,TGI,[9],> 100 µM
same,TGI,[55],> 100 µM
same,TGI,[11],> 100 µM
same,TGI,[12],> 100 µM
same,TGI,[14],> 100 µM
same,TGI,[15],> 100 µM
same,TGI,[16],> 100 µM
same,TGI,[17],> 100 µM
same,TGI,[18],> 100 µM
same,TGI,[20],> 100 µM
same,TGI,[21],> 100 µM
same,TGI,[22],> 100 µM
same,TGI,[57],> 100 µM
same,TGI,[24],> 100 µM
same,TGI,[26],> 100 µM
same,TGI,[27],> 100 µM
same,TGI,[28],> 100 µM
same,TGI,[29],> 100 µM
same,TGI,[30],> 100 µM
same,TGI,[31],> 100 µM
same,TGI,[32],> 100 µM
same,TGI,[35],> 100 µM
same,TGI,[36],> 100 µM
same,TGI,[37],> 100 µM
same,TGI,[39],> 100 µM
same,TGI,[40],> 100 µM
same,TGI,[41],> 100 µM
same,TGI,[42],> 100 µM
same,TGI,[43],> 100 µM
same,TGI,[44],> 100 µM
same,TGI,[45],> 100 µM
same,TGI,[47],> 100 µM
same,TGI,[48],> 100 µM
same,TGI,[49],> 100 µM
same,TGI,[50],> 100 µM
same,TGI,[53],> 100 µM
same,TGI,[54],> 100 µM
same,TGI,[58],> 100 µM
same,TGI,[56],> 100 µM
